According to PubChem BioAssay (NCI):
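The compound was tested at five concentrations on cells cultured in 96-well plates, with a 48-hour exposure period. GI50 = concentration required for 50% inhibition of growth. At the TGI there is no net growth.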

Assays:
Test in all cases: growth of human tumour cells (NCI), 48 h
MOLT-4 leukemia = test system: MOLT-4 leukemia
SN12C renal = test system: SN12C renal
COLO 205 colon = test system: COLO 205 colon
NCI-H460 lung = test system: NCI-H460 lung
UACC-257 melanoma = test system: UACC-257 melanoma
MDA-MB-231 breast = test system: MDA-MB-231 breast
HL-60(TB) leukemia = test system: HL-60(TB) leukemia
TK-10 renal = test system: TK-10 renal
HCT-116 colon = test system: HCT-116 colon
HS 578T breast = test system: HS 578T breast
OVCAR-3 ovarian = test system: OVCAR-3 ovarian
MDA-MB-468 breast = test system: MDA-MB-468 breast
SNB-19 CNS = test system: SNB-19 CNS
UO-31 renal = test system: UO-31 renal
CCRF-CEM leukemia = test system: CCRF-CEM leukemia
IGROV1 ovarian = test system: IGROV1 ovarian
SF-295 CNS = test system: SF-295 CNS
BT-549 breast = test system: BT-549 breast
NCI-H226 lung = test system: NCI-H226 lung
LOX IMVI melanoma = test system: LOX IMVI melanoma
SW-620 colon = test system: SW-620 colon
CAKI-1 renal = test system: CAKI-1 renal
KM12 colon = test system: KM12 colon
HT29 colon = test system: HT29 colon
NCI-H522 lung = test system: NCI-H522 lung
T-47D breast = test system: T-47D breast
NCI-H23 lung = test system: NCI-H23 lung
OVCAR-5 ovarian = test system: OVCAR-5 ovarian
SK-MEL-5 melanoma = test system: SK-MEL-5 melanoma
SF-539 CNS = test system: SF-539 CNS
ACHN renal = test system: ACHN renal
EKVX NSCLC = test system: EKVX NSCLC
OVCAR-4 ovarian = test system: OVCAR-4 ovarian
786-0 renal = test system: 786-0 renal
SK-OV-3 ovarian = test system: SK-OV-3 ovarian
MALME-3M melanoma = test system: MALME-3M melanoma
PC-3 prostate = test system: PC-3 prostate
HCT-15 colon = test system: HCT-15 colon
M14 melanoma = test system: M14 melanoma
HOP-92 NSCLC = test system: HOP-92 NSCLC
SF-268 CNS = test system: SF-268 CNS
HCC-2998 colon = test system: HCC-2998 colon
DU-145 prostate = test system: DU-145 prostate
U251 CNS = test system: U251 CNS
K-562 leukemia = test system: K-562 leukemia
OVCAR-8 ovarian = test system: OVCAR-8 ovarian
RPMI-8226 leukemia = test system: RPMI-8226 leukemia
SR leukemia = test system: SR leukemia
HOP-62 NSCLC = test system: HOP-62 NSCLC
RXF 393 renal = test system: RXF 393 renal
SNB-75 CNS = test system: SNB-75 CNS
SK-MEL-2 melanoma = test system: SK-MEL-2 melanoma
SK-MEL-28 melanoma = test system: SK-MEL-28 melanoma
UACC-62 melanoma = test system: UACC-62 melanoma
MCF7 breast = test system: MCF7 breast
A549 NSCLC = test system: A549 NSCLC
MDA-MB-435 = test system: MDA-MB-435
A498 renal = test system: A498 renal

Structure (SMILES): CC(=O)Oc1ccccc1C(=O)NC([Se])=NC1CCCCC1
- GI50 (MOLT-4 leukemia): 10.8 µM
- TGI (MOLT-4 leukemia): 98.8 µM
- GI50 (SN12C renal): 1990 nM
- TGI (SN12C renal): 4.41 µM
- GI50 (COLO 205 colon): 17.1 µM
- TGI (COLO 205 colon): 31.4 µM
- GI50 (NCI-H460 lung): 2620 nM
- TGI (NCI-H460 lung): 7.24 µM
- GI50 (UACC-257 melanoma): 2930 nM
- TGI (UACC-257 melanoma): 10.2 µM
- GI50 (MDA-MB-231 breast): 1960 nM
- TGI (MDA-MB-231 breast): 3.77 µM
- GI50 (HL-60(TB) leukemia): 18.2 µM
- TGI (HL-60(TB) leukemia): > 100 µM
- GI50 (TK-10 renal): 12.1 µM
- TGI (TK-10 renal): 24.7 µM
- GI50 (HCT-116 colon): 3.18 µM
- TGI (HCT-116 colon): 12.6 µM
- GI50 (HS 578T breast): 2670 nM
- TGI (HS 578T breast): 9.16 µM
- GI50 (OVCAR-3 ovarian): 12.4 µM
- TGI (OVCAR-3 ovarian): 25.9 µM
- GI50 (MDA-MB-468 breast): 7.37 µM
- TGI (MDA-MB-468 breast): 20.7 µM
- GI50 (SNB-19 CNS): 3.28 µM
- TGI (SNB-19 CNS): 11.7 µM
- GI50 (UO-31 renal): 1620 nM
- TGI (UO-31 renal): 3.03 µM
- GI50 (CCRF-CEM leukemia): 5.25 µM
- TGI (CCRF-CEM leukemia): 29.4 µM
- GI50 (IGROV1 ovarian): 2020 nM
- TGI (IGROV1 ovarian): 3.98 µM
- GI50 (SF-295 CNS): 2240 nM
- TGI (SF-295 CNS): 5.08 µM
- GI50 (BT-549 breast): 3.3 µM
- TGI (BT-549 breast): 11.3 µM
- GI50 (NCI-H226 lung): 2560 nM
- TGI (NCI-H226 lung): 9.46 µM
- GI50 (LOX IMVI melanoma): 1960 nM
- TGI (LOX IMVI melanoma): 4.26 µM
- GI50 (SW-620 colon): 10.2 µM
- TGI (SW-620 colon): 23.6 µM
- GI50 (CAKI-1 renal): 3.07 µM
- TGI (CAKI-1 renal): 11.5 µM
- GI50 (KM12 colon): 3.42 µM
- TGI (KM12 colon): 11.7 µM
- GI50 (HT29 colon): 4.87 µM
- TGI (HT29 colon): 28.7 µM
- GI50 (NCI-H522 lung): 15.6 µM
- TGI (NCI-H522 lung): 30 µM
- GI50 (T-47D breast): 12.5 µM
- TGI (T-47D breast): 30.2 µM
- GI50 (NCI-H23 lung): 2240 nM
- TGI (NCI-H23 lung): 5.35 µM
- GI50 (OVCAR-5 ovarian): 2070 nM
- TGI (OVCAR-5 ovarian): 5.15 µM
- GI50 (SK-MEL-5 melanoma): 1630 nM
- TGI (SK-MEL-5 melanoma): 3.07 µM
- GI50 (SF-539 CNS): 1840 nM
- TGI (SF-539 CNS): 3.46 µM
- GI50 (ACHN renal): 9.75 µM
- TGI (ACHN renal): 25.8 µM
- GI50 (EKVX NSCLC): 2120 nM
- TGI (EKVX NSCLC): 4.93 µM
- GI50 (OVCAR-4 ovarian): 4.35 µM
- TGI (OVCAR-4 ovarian): 16.9 µM
- GI50 (786-0 renal): 1720 nM
- TGI (786-0 renal): 3.28 µM
- GI50 (SK-OV-3 ovarian): 2840 nM
- TGI (SK-OV-3 ovarian): 7.5 µM
- GI50 (MALME-3M melanoma): 16.7 µM
- TGI (MALME-3M melanoma): 30.3 µM
- GI50 (PC-3 prostate): 2630 nM
- TGI (PC-3 prostate): 8.24 µM
- GI50 (HCT-15 colon): 3.43 µM
- TGI (HCT-15 colon): 11.6 µM
- GI50 (M14 melanoma): 2430 nM
- TGI (M14 melanoma): 5.7 µM
- GI50 (HOP-92 NSCLC): 2340 nM
- TGI (HOP-92 NSCLC): 6.52 µM
- GI50 (SF-268 CNS): 13.7 µM
- TGI (SF-268 CNS): 31.2 µM
- GI50 (HCC-2998 colon): 2280 nM
- TGI (HCC-2998 colon): 5.11 µM
- GI50 (DU-145 prostate): 3.22 µM
- TGI (DU-145 prostate): 10.2 µM
- GI50 (U251 CNS): 2350 nM
- TGI (U251 CNS): 6.24 µM
- GI50 (K-562 leukemia): 26.1 µM
- TGI (K-562 leukemia): > 100 µM
- GI50 (OVCAR-8 ovarian): 1950 nM
- TGI (OVCAR-8 ovarian): 3.73 µM
- GI50 (RPMI-8226 leukemia): 2630 nM
- TGI (RPMI-8226 leukemia): 7.61 µM
- GI50 (SR leukemia): 3.11 µM
- TGI (SR leukemia): 14.4 µM
- GI50 (HOP-62 NSCLC): 3.35 µM
- TGI (HOP-62 NSCLC): 13.4 µM
- GI50 (RXF 393 renal): 1650 nM
- TGI (RXF 393 renal): 3.34 µM
- GI50 (SNB-75 CNS): 1710 nM
- TGI (SNB-75 CNS): 5.87 µM
- GI50 (SK-MEL-2 melanoma): 2350 nM
- TGI (SK-MEL-2 melanoma): 5.29 µM
- GI50 (SK-MEL-28 melanoma): 3.59 µM
- TGI (SK-MEL-28 melanoma): 13.1 µM
- GI50 (UACC-62 melanoma): 1790 nM
- TGI (UACC-62 melanoma): 3.89 µM
- GI50 (MCF7 breast): 2240 nM
- TGI (MCF7 breast): 6.8 µM
- GI50 (A549 NSCLC): 3.3 µM
- TGI (A549 NSCLC): 23 µM
- GI50 (MDA-MB-435): 7.88 µM
- TGI (MDA-MB-435): 20.9 µM
- GI50 (A498 renal): 2410 nM
- TGI (A498 renal): 7.58 µM
